Laboratory results from patent US11389456B2, “Compounds and methods for treating oxalate-related diseases” (OxaluRx, Inc., priority 2018, dated 2022).
pIC50: −log10 of the molar value. In brackets after ≈: the same amount, converted by molar mass.

Columns and labels:
[1] = target: recombinant full-length human hydroxyacid oxidase 1 (HAO1), the equivalent of hGOX (Homo sapiens (Human), UniProt Q9UJM8); experiment: In-vitro human glycolate oxidase (hGOX) assay (Amplex red/HRP fluorescence); assay type: biochemical
Procedure: Biological Activity Assay: In-Vitro Human Glycolate Oxidase (hGOX) Assay
The in-vitro glycolate oxidase assay was performed using recombinant full-length human hydroxyacid oxidase 1 (HAO1), the equivalent of hGOX. […] Purified HAO1 was dissolved in assay buffer consisting of 10 mM NaCl, 110 mM KCl, 2 mM MgCl2, 50 mM HEPES (pH 7.4) and 0.01% Triton™ X-100.

[2] = Solubility in phosphate buffered saline (PBS), pH 7.4; assay type: physicochemical; settings: phosphate buffer (PBS), aqueous buffer, kinetic from dmso stock; phosphate buffered saline pH 7.4, 1% DMSO, 1 hour shaking at room temperature
Procedure: (§1) For testing compound solubility in phosphate buffered saline (PBS), compound stock solutions were prepared at 10 mM in 100% DMSO. For testing in aqueous solution, the phosphate buffer was replaced with deionized, distilled water. Eleven grams Na2HPO4 (FW: 141.96 g/mol) and 3.5 g NaH2PO4.2H2O (FW: 156.03 g/mol) was added to 1 L Milli-Q water and adjusted to a pH to 7.4 with phosphoric acid or sodium hydroxide. For incubation, media were preheated to 37° C. Eight μL aliquots of reference and test compound stock solutions (10 mM) were added into 792 μL of 100 mM phosphate buffer (pH 7.4). The final DMSO concentration was 1%. Sample tubes were shaken for 1 hour at 1000 rpm at room temperature.
(§2) The calibration curve was prepared with 300-μM spiking solution (SS) in MeOH:acetonitrile (4:1). Six μL of 10 mM compound was added in 194 μL MeOH/acetonitrile (4:1). Samples were centrifuged for 10 minutes at 12,000 rpm to precipitate undissolved particles. Supernatants were transferred to a new tube or plate and dilute 10-fold and 100-fold with 100 mM buffer. Samples were prepared for LC-MS/MS analysis by adding 5 μL each sample (undiluted, 10-fold diluted, and 100-fold diluted) and 5 μL of standard curve samples to 95 μL of acetonitrile (containing internal standard).

[3] = Solubility in aqueous solution (deionized, distilled water); assay type: physicochemical; settings: kinetic from dmso stock, 1% DMSO, read-out: Aqueous Solubility H2O
Procedure: as §1, §2

[4] = Metabolic stability in human liver microsomal preparation; assay type: in vitro ADME; settings: pH 7.4, human liver microsomes, NADPH, 37° C.; for half-life at 1 μM: 0-45 min, read-out: Metabolic Stability t1/2
Procedure: For evaluating the metabolic stability in human liver microsomal preparation, three buffers were prepared. Buffer A had 1.0 L of 0.1 M monobasic potassium phosphate buffer containing 1.0 mM EDTA. Buffer B had 1.0 L of 0.1 M dibasic potassium phosphate buffer containing 1.0 mM EDTA. Buffer C had 0.1 M potassium phosphate buffer, 1.0 mM EDTA, adjusted to a pH 7.4 via titrating 700 mL buffer B with buffer A. Reference compound (ketanserin) and test compounds spiking solutions (500 μM) were prepared by adding 10 μL of 10 mM DMSO stock compound solution into 190 μL acetonitrile. A volume of 1.5 μL 500 μM spiking solution and 18.75 μL 20 mg/mL human liver microsomes were added into 479.75 μL of Buffer C on ice. A stock solution of 6 mM NADPH was prepared by dissolving NADPH into Buffer C.
Wells on an assay plate were iced and filled with 30 μL 1.5-μM spiking solution containing 0.75 mg/mL microsomes solution and designated for different timepoints (0-, 5-, 15-, 30-, 45-min). For the 0-min timepoint, 135 μL acetonitrile containing internal standard were added followed by 15 μL of NADPH stock solution (6 mM). All other plates were preincubated at 37° C. for 5 minutes and 15 μL NADPH stock solution (6 mM) were added to the plates to start the reaction. At 5-min, 15-min, 30-min, and 45-min, 135 μL acetonitrile containing internal standard were added to the wells of corresponding plates, respectively, to stop the reaction. After quenching, the plates were shaken on the vibrator (IKA, MTS 2/4) for 10 min at 600 rpm and then centrifuged at 5594×g for 15 minutes (Thermo Multifuge×3R). Fifty μL supernatant from each well were transported into a 96-well sample plate containing 50 μL of ultra-pure water (Millipore, ZMQS50F01) for LC/MS analysis.

[5] = Stability in human plasma; assay type: in vitro ADME; settings: read-out: Plasma Stability T1/2
Procedure: Stability in Human Plasma.
Stock compounds were prepared for testing the stability in human plasma. First, 0.05 M sodium phosphate and 0.07 M NaCl buffer, pH 7.4, were pre-heated. In deionized water, 14.505 g/L Na2HPO 12H2O, 1.483 g/L NaH2PO4.2H2O and 4.095 g/L NaCl were dissolved. The basic solution was titrated with the phosphoric acid to pH 7.40. Frozen plasma was quickly thawed at 37° C. The plasma was centrifuged at 3,000 rpm for 8 minutes to remove clots, then pipetted and pooled as the plasma stock for the experiment. Only plasma within the range of pH 7.4 to pH 8 was used. If higher than pH 8, the plasma was discarded. The initial pH of the plasma was not adjusted to pH 7.4 with acid or by bubbling with carbon dioxide. By using a 5% carbon dioxide incubator and PBS buffer, a pH of 7.4 will be reached after the 4-hour equilibrium dialysis time. Plasma was iced until use.
Spiking solution A with 0.5 mM testing compounds was prepared by adding 10 μL of 10 mM test compounds stock solution to 190 μL DMSO. Spiking solution B with 0.02 mM testing compound was prepared by adding 40 μL of spiking solution A to 960 μL of […] sodium phosphate buffer with 0.5% BSA. The plasma and spiking solution B were prewarmed at 37° C. for 5 minutes. Ten μL of pre-warmed spiking solution B was added into the wells designated for all the time points (5, 15, 30, 45, 60 minutes). For the 0-minute timepoint, 400 μL acetonitrile containing internal standard were added to the wells of 0-minute plate and then 90 μL plasma were added. For the other timepoints, 90 μL of pre-warmed plasma were added into the wells (0, 5, 15, 30, 45, 60 minutes) and the timing was started. At 5, 15, 30, 45, 60 minutes, 400 μL acetonitrile containing internal standard were added to the wells of corresponding plates, respectively, to stop the reaction. After quenching, the plates were shaken on a vibrator (IKA, MTS 2/4) for 10 minutes at 600 rpm and then centrifuged at 5594×g for 15 minutes (Thermo Multifuge×3R). Fifty μL of supernatant was transferred from each well into a 96-well sample plate containing 50 μL ultra-pure water (Millipore, ZMQS50F01) for LC/MS analysis.

[6] = Protein binding (plasma equilibrium dialysis); assay type: in vitro ADME; settings: 5 hours at 37° C.; for fraction unbound at 5 h, 1 μM: read-out: Protein Binding Fraction Bound (converted)
Procedure: For testing protein binding of stock compounds solubilized in DMSO, spiking solutions of test and reference compounds were prepared. Solution A (0.5 mM) was prepared by adding 10 μL of 10 mM stock solution into 190 μL of DMSO. Solution B (0.02 mM) was prepared by adding 8 μL of Solution A into 192 μL of 0.05 M sodium phosphate buffer. The final DMSO concentration in Solution B was 4%.
To prepare test and reference compounds in plasma, a 96-well plate with 380 μL aliquots of plasma in the wells designed for plasma and buffer, respectively. Twenty μL of Solution B (0.02 mM of test and reference compounds) were spiked into the pre-loaded plasma in the 96-well plate. The final test concentration is 1 μM containing 0.2% DMSO.
For dialysis sample loading a plasma again buffer system was prepared by applying aliquots of 100 μL of blank dialysis buffer to the receiver side of dialysis chambers and then applying aliquots of 100 μL of the plasma spiked with test and reference compounds to the donor side of the dialysis chamber. A 25-μL aliquot of the plasma spiked with test and reference compounds was added into a 96-well sample preparation plate as T″0″ plasma samples. Aliquots were mixed with the same volume of blank buffer (50:50, volume:volume). Samples were quenched with 200 μL of acetonitrile containing internal standard. The dialysis block was covered and a shaken at 60 rpm for 5 hours at 37° C.
After a 5-hour incubation, dialyzed samples were prepared from 25-μL aliquots from both the donor and receiver sides of the dialysis apparatus into new sample preparation plates. The aliquots were mixed with same volume of opposite matrixes. The samples were quenched with 200 μL acetonitrile containing internal standard. All 0-hour and 5-hour samples were vortexed at 600 rpm for 10 min followed by centrifugation at 5594×g for 15 minutes (Thermo Multifuge×3R). Fifty μL of the supernatants were transferred to anew 96-well plate and mixed with 50 μL Milli-Q water. The sample plate was covered and frozen at −20° C. until LC/MS/MS analysis.

Sequence of recombinant full-length human hydroxyacid oxidase 1 (HAO1), the equivalent of hGOX (Q9UJM8 whole entry): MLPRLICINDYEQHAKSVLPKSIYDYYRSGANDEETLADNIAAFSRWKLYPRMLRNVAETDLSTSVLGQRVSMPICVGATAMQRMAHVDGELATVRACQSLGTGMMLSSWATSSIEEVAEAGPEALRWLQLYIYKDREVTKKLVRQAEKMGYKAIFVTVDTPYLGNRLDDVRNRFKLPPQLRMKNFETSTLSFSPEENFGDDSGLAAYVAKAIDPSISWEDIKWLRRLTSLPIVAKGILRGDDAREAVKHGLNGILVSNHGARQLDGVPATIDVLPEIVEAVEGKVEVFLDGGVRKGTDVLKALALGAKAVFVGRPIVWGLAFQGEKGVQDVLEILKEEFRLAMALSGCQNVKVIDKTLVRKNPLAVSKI

Structure (SMILES)	pIC50 [1]	solubility at 1 h [2]	solubility at 1 h [3]	CLint scaled at 1 μM [4]	half-life at 1 μM [4]	half-life at 2 μM [5]	recovery at 5 h, 1 μM [6]	fraction unbound at 5 h, 1 μM [6]
O=C(O)c1[nH]nnc1Oc1ccc(Cl)c(Cl)c1 [Example I-050, 5-(3,4-Dichlorophenoxy)-1H-1,2,3-triazole-4-carboxylic acid]	7.92	120 µM (≈ 33 µg/mL)	102 µM (≈ 28 µg/mL)	2.47 mL/min/kg	11.7 h	2.35 h	71.2%	
O=C(O)c1nn[nH]c1Oc1ccc(Cl)cc1 [Example I-033, 5-(4-Chlorophenoxy)-1H-1,2,3-triazole-4-carboxylic acid]	7.17	121 µM (≈ 29 µg/mL)	108 µM (≈ 25.8 µg/mL)	< 0.15 mL/min/kg	> 83.3 h	1.26 h	123%	
O=C(O)c1nn[nH]c1Oc1cccc(C2CCC2)c1 [Example I-279, 5-(3-Cyclobutylphenoxy)-1H-1,2,3-triazole-4-carboxylic acid]	7.49	112 µM (≈ 29.1 µg/mL)	111 µM (≈ 28.7 µg/mL)	4.98 mL/min/kg	5.82 h	2.61 h	98.2%	
C#Cc1cccc(Oc2[nH]nnc2C(=O)O)c1 [Example I-288, 5-(3-ethynylphenoxy)-1H-1,2,3-triazole-4-carboxylic acid]	7.62	92.4 µM (≈ 21.2 µg/mL)	80.6 µM (≈ 18.5 µg/mL)	3.11 mL/min/kg	9.31 h	1.96 h	110%	0.025
O=C(O)c1nn[nH]c1Oc1ccc(C2CC2)cc1 [Example I-294, 5-(4-Cyclopropylphenoxy)-1H-1,2,3-triazole-4-carboxylic acid]	7.28	108 µM (≈ 26.4 µg/mL)	108 µM (≈ 26.4 µg/mL)	3.4 mL/min/kg	8.52 h	1.71 h	111%	
O=C(O)c1nn[nH]c1Oc1ccc(C2CCC2)cc1 [Example I-275, 5-(4-Cyclobutylphenoxy)-1H-1,2,3-triazole-4-carboxylic acid]	7.66	115 µM (≈ 29.8 µg/mL)	110 µM (≈ 28.5 µg/mL)	18.3 mL/min/kg	1.58 h	1.7 h	98.5%	
COc1ccc(-c2ccc(Oc3[nH]nnc3C(=O)O)cc2)cc1OC [Example I-270, 5-((3′,4′-Dimethoxy-[1,1′-biphenyl]-4-yl)oxy)-1H-1,2,3-triazole-4-carboxylic acid]	7.89	< 0.2 µM	109 µM (≈ 37.2 µg/mL)	2.72 mL/min/kg	10.6 h	5.2 h	101%	0.008
CCCC(C)c1ccc(Oc2[nH]nnc2C(=O)O)cc1 (stereo not shown) [Example I-273, 5-(4-(Pentan-2-yl)phenoxy)-1H-1,2,3-triazole-4-carboxylic acid]	7.35	112 µM (≈ 30.8 µg/mL)	108 µM (≈ 29.7 µg/mL)	35.2 mL/min/kg	0.822 h	2.2 h	99.9%	0.003
Cc1ccc(-c2ccc(Sc3[nH]nnc3C(=O)O)cc2)cc1 [Example I-129, 5-((4′-Methyl-[1,1′-biphenyl]-4-yl)thio)-1H-1,2,3-triazole-4-carboxylic acid]	7.39	116 µM (≈ 36.1 µg/mL)	72.7 µM (≈ 22.6 µg/mL)	21.6 mL/min/kg	1.34 h	1.44 h	113%	
O=C(O)c1nn[nH]c1Oc1cccc(-c2cc(Cl)cc(Cl)c2)c1 [Example I-302, 5-((3′,5′-Dichloro-[1,1′-biphenyl]-3-yl)oxy)-1H-1,2,3-triazole-4-carboxylic acid]	8.52	112 µM (≈ 39 µg/mL)	90.7 µM (≈ 31.7 µg/mL)	< 0.15 mL/min/kg	> 83.3 h	1.67 h	104%	0.017
CC(C)Cc1ccc(Oc2[nH]nnc2C(=O)O)cc1 [Example I-299, 5-(4-Isobutylphenoxy)-1H-1,2,3-triazole-4-carboxylic acid]	7.48	104 µM (≈ 27.1 µg/mL)	98.4 µM (≈ 25.7 µg/mL)	11.3 mL/min/kg	2.55 h	1.22 h	114%	0.002
